From patent US20130130985A1 (priority 2010, published 2013)
Where a SMILES comes first, the peptide text is derived from it.

Assays:
hOTR [1] = target: T1, hOTR (Homo sapiens, UniProt P30559); assay: Radioligand binding assay, displacement of 3H-OT, COS-1 membranes
T1 construct: expressed in transfected cells; host or cells: COS-1
T1 sequence (P30559 1-389): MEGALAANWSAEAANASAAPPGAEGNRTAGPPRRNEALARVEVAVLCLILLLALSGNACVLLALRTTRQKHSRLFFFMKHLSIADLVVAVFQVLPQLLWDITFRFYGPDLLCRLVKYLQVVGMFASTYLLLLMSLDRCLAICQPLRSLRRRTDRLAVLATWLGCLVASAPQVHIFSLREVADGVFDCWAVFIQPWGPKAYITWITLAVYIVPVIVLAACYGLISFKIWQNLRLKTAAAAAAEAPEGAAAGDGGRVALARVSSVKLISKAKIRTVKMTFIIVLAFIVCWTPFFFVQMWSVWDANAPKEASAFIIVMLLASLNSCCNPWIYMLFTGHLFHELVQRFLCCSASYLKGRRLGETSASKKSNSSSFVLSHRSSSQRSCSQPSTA

hV1bR [2] = target: T2, hV1bR (Homo sapiens, UniProt P47901); assay: Radioligand binding assay, displacement of 3H-AVP, COS-1 membranes
T2 construct: expressed in transfected cells; host or cells: COS-1
T2 sequence (P47901 1-424): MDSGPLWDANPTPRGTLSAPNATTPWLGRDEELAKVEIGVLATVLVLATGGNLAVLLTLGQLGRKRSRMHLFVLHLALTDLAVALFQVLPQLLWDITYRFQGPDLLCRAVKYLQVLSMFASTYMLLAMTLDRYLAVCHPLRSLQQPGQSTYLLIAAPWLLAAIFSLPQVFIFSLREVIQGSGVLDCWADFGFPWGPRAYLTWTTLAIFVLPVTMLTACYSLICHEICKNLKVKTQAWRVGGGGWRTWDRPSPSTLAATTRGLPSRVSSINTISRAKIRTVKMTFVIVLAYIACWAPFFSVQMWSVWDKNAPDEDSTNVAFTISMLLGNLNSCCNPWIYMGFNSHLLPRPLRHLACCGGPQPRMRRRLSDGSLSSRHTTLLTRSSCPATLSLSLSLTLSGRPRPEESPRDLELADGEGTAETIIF

hOTR [3] = target: T1, hOTR; assay: Functional IP-One HTRF assay; assay type: cell-based; settings: for Emax: read-out: hOTR Emax
Procedure: (§1) Cells were lysed by the addition of the HTRF reagents (the europium cryptate-labeled anti-IP1 antibody and the d2-labeled IP1 analogue) diluted in lysis buffer. The assays were incubated for 1 h at room temperature.

hV1bR [4] = target: T2, hV1bR; assay: Functional IP-One HTRF assay; assay type: cell-based
Procedure: as §1

hOTR [5] = target: T1, hOTR; assay: Functional FLIPR assay (calcium signalling); assay type: cell-based
Procedure: (§2) To allow for complete de-esterification of the dye, cells were washed 5-10 min with PSS before transfer to a FLIPR^TETRA (Molecular Devices, Sunnyvale, Calif.) fluorescent plate reader. […] The baseline fluorescence was set to a minimum of 1000 arbitrary fluorescence units by adjusting camera gain and excitation intensity. Compounds were added as 3× concentrated stock solutions in PSS, with 10 baseline fluorescence readings prior to compound addition followed by fluorescence reading every second for 180 s.
(§3) As previously described, raw fluorescence data was converted to ΔF/F values by subtracting baseline fluorescence readings from subsequent time points and dividing by baseline fluorescence values. […] A 4-parameter Hill equation with Hill coefficient=1 was fitted to the data using GraphPad Prism (Version 4.00, San Diego, Calif.).

hV1aR [6] = target: T3, hV1aR (Homo sapiens, UniProt P37288); assay: Functional FLIPR assay (calcium signalling); assay type: cell-based
T3 construct: expressed in transfected cells; host or cells: COS-1
Procedure: as §2, §3

hV1bR [7] = target: T2, hV1bR; assay: Functional FLIPR assay (calcium signalling); assay type: cell-based
Procedure: as §2, §3

hV1aR [8] = target: T3, hV1aR; assay: Functional IP-One HTRF assay; assay type: cell-based
Procedure: as §1

[9] = phosphate buffer pH 7.4, 37° C., over a period of 48 h
[10] = Stability assay in rat plasma and human serum (metabolic half life); settings: Half life (h), 37° C., matrix of the values not specified
Procedure: 300 μL rat plasma and human serum (Sigma Aldrich) was incubated at 37° C. for 30 min. 50 mL of peptide sample (0.3 mM) in 0.1 M phosphate buffer, pH 7.2 was added to the rat plasma and human serum. The vortexed mixture was incubated at 37° C.

T3 sequence (P37288 whole entry): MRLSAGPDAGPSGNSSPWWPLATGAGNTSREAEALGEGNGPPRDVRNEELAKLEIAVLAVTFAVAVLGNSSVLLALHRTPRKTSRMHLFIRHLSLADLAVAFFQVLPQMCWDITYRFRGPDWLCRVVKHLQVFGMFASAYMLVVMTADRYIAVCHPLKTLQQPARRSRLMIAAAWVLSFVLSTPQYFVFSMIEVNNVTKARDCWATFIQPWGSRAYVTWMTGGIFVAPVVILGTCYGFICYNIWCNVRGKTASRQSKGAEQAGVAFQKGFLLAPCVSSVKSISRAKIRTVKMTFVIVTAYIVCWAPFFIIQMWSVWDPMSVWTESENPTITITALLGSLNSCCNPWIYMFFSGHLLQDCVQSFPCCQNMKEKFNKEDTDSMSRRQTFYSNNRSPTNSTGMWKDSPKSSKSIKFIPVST

Compound	Emax (hOTR [3])	Emax (hV1bR [4])	Emax (hV1aR [6])	Emax (hV1aR [8])	degradation in phosphate buffer [9]	other results
CC[C@H](C)[C@@H]1NC(=O)[C@H](Cc2ccc(O)cc2)NC(=O)CCSSC[C@@H](C(=O)N2CCC[C@H]2C(=O)N[C@@H](CC(C)C)C(=O)NCC(N)=O)NC(=O)[C@H](CC(N)=O)NC(=O)[C@H](CCC(N)=O)NC1=O [dOT]	100%	67 ± 10%	54%	–	–	IC50 (hOTR [1]): 1.7 nM; IC50 (hV1bR [2]): 351 ± 125 nM; EC50 (hOTR [3]; IP-One assay, COS-1): 0.71 nM; EC50 (hV1bR [4]; IP-One assay, COS-1): 470 ± 422 nM; Emax (hOTR [5]): 89%; EC50 (hOTR [5]; FLIPR assay, COS-1): 0.39 nM; EC50 (hV1aR [6]; FLIPR assay, COS-1): 46.1 nM; Emax (hV1bR [7]): 100%; EC50 (hV1bR [7]; FLIPR assay, COS-1): 15.9 ± 5.96 nM
CC[C@H](C)[C@@H]1NC(=O)[C@H](Cc2ccc(O)cc2)NC(=O)[C@@H](N)CCSC[C@@H](C(=O)N2CCC[C@H]2C(=O)N[C@@H](CC(C)C)C(=O)NCC(N)=O)NC(=O)[C@H](CC(N)=O)NC(=O)[C@H](CCC(N)=O)NC1=O [[CH2—S]-OT] (HELM PEPTIDE1{[N[C@@H](CC[*:3])C(=O)[*:2]].Y.I.Q.N.C.P.L.G.[am]}$PEPTIDE1,PEPTIDE1,1:R3-6:R3$$$V2.0; N-terminus and C-terminus assumed)	64 ± 14%	–	–	75 ± 8%	–	–
CC[C@H](C)[C@@H]1NC(=O)[C@H](Cc2ccc(O)cc2)NC(=O)[C@@H](N)CSSC[C@@H](C(=O)N2CCC[C@H]2C(=O)N[C@@H](CC(C)C)C(=O)NCC(N)=O)NC(=O)[C@H](CC(N)=O)NC(=O)[C@H](CCC(N)=O)NC1=O [OT, Oxytocin]	–	–	71%	79 ± 9%	no degradation was observed	–
CC[C@H](C)[C@@H]1NC(=O)[C@H](Cc2ccc(O)cc2)NC(=O)[C@@H](N)CSSC[C@@H](C(=O)N2CCC[C@H]2C(=O)N[C@@H](CC(C)C)C(=O)NCC(=O)O)NC(=O)[C@H](CC(N)=O)NC(=O)[C@H](CCC(N)=O)NC1=O [[S—S]-OT-OH, OT-OH]	82 ± 13%	96 ± 6%	–	77 ± 24%	–	drop in functional efficacy at the hOTR (hOTR [3]; compared to OT): 10-30 fold; drop in functional efficacy at the hV1bR (hV1bR [4]; compared to OT): 10-30 fold
NC(=O)CC[C@@H]1NC(=O)[C@H](Cc2ccccc2)NC(=O)[C@H](Cc2ccc(O)cc2)NC(=O)[C@@H](N)CSSC[C@@H](C(=O)N2CCC[C@H]2C(=O)N[C@@H](CCCN=C(N)N)C(=O)NCC(N)=O)NC(=O)[C@H](CC(N)=O)NC1=O [AVP, arginine-vasopressin]	–	–	–	–	no degradation was observed	half-life at 0.043 mM [10]: 2 h
